Measurements reported in ChEMBL document CHEMBL6074692, “Design, synthesis, and evaluation of novel benzofuran and pyrazole-based derivatives as dual AChE/BuChE inhibitors with antioxidant properties for Alzheimer's disease management” (Eur J Med Chem, 2025).
In brackets after ≈: the same amount, converted by molar mass. Activity calls are given as the source filed them. No cut-off for these calls is given here.

Experiments:
[1] = molecular target: T1, Acetylcholinesterase (Homo sapiens, UniProt P22303); assay: Inhibition of AChE (unknown origin) by Ellman's method
T1 sequence (P22303 whole entry): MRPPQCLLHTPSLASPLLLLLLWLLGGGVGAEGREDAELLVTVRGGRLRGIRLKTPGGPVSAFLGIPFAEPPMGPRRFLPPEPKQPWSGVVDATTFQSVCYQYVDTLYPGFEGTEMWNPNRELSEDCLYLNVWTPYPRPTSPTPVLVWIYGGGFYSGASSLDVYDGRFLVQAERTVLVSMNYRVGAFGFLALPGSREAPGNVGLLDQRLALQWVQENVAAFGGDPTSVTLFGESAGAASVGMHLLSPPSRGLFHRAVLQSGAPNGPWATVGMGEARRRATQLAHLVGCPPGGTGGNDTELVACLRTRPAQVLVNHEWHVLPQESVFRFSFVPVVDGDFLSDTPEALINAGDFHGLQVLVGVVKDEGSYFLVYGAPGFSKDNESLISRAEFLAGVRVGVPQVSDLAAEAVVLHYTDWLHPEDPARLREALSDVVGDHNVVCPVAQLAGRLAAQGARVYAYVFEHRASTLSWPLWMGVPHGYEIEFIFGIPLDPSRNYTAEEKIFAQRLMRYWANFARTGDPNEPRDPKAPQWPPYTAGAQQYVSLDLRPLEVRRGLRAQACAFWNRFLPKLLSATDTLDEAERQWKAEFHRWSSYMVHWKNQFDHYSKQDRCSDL

[2] = Antioxidant activity assessed as DPPH radical scavenging activity; format: functional
[3] = molecular target: Cholinesterase (Homo sapiens, UniProt P06276); assay: Inhibition of BuChE (unknown origin)
Chain of Cholinesterase (P06276 whole entry): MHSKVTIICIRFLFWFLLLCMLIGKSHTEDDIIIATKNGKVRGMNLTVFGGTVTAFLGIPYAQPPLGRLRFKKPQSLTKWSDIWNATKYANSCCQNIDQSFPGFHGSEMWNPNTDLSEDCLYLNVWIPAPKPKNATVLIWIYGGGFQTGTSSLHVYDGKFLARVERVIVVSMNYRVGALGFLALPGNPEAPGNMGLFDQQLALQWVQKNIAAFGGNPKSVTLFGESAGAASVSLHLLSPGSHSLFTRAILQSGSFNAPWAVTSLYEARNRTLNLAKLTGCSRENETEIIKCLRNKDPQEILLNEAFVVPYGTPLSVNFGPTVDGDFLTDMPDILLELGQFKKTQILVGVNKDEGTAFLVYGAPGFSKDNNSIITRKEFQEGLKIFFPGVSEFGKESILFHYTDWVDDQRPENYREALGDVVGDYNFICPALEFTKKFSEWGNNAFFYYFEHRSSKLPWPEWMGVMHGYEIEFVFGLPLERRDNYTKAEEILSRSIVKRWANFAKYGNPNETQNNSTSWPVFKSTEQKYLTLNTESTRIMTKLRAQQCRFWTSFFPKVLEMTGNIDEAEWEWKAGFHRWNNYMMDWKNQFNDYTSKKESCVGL

[4] = molecular target: T1, Acetylcholinesterase; assay: Mixed inhibition of AChE (unknown origin)
[5] = Chronic toxicity in male Wistar rat assessed as negative side effects at 10 mg/kg, po measured after 1 month; format: organism-based; conditions: in vivo, 730 h, time 1 months
[6] = Chronic toxicity in male Wistar rat assessed as drug tolerance at 10 mg/kg, po measured after 1 month; format: organism-based; conditions: in vivo, 730 h, time 1 months
[7] = Toxicity in male Wistar rat assessed as HB level at 10 mg/kg, po (reference value: 13.11 +/- 0.48 g/dL); format: organism-based; conditions: in vivo
[8] = Toxicity in male Wistar rat assessed as RBC level measured per million cells at 10 mg/kg, po (reference value: 6.96 +/- 0.45 /cm); format: organism-based; conditions: in vivo
[9] = Toxicity in male Wistar rat assessed as haematocrit level at 10 mg/kg, po (reference value: 39.01 +/- 1.12 %); format: organism-based; conditions: in vivo
[10] = Toxicity in male Wistar rat assessed as MCV level at 10 mg/kg, po (reference value: 59.92 +/- 2.2 fL); format: organism-based; conditions: in vivo
[11] = Toxicity in male Wistar rat assessed as MCH level at 10 mg/kg, po (reference value: 18.50 +/- 1.52 pg); format: organism-based; conditions: in vivo
[12] = Toxicity in male Wistar rat assessed as MCHC level at 10 mg/kg, po (reference value: 32.52 +/- 2.48 g/dL); format: organism-based; conditions: in vivo
[13] = Toxicity in male Wistar rat assessed as RDW-CV level at 10 mg/kg, po (reference value: 16.93 +/- 1.69 %); format: organism-based; conditions: in vivo
[14] = Toxicity in male Wistar rat assessed as MPV level at 10 mg/kg, po (reference value: 7.01 +/- 0.28 fL); format: organism-based; conditions: in vivo
[15] = Toxicity in male Wistar rat assessed as WBC level at 10 mg/kg, po (reference value: 4.60 +/- 0.61 10^3/cmm); format: organism-based; conditions: in vivo
[16] = Toxicity in male Wistar rat assessed as ALT level at 10 mg/kg, po (reference value: 42.18 +/- 3.35 U/L); format: organism-based; conditions: in vivo
[17] = Toxicity in male Wistar rat assessed as AST level at 10 mg/kg, po (reference value: 78.16 +/- 9.37 U/L); format: organism-based; conditions: in vivo
[18] = Toxicity in male Wistar rat assessed as ALP level at 10 mg/kg, po (reference value: 137.18 +/- 7.04 U/L); format: organism-based; conditions: in vivo
[19] = Toxicity in male Wistar rat assessed as total bilirubin level at 10 mg/kg, po (reference value: 0.68 +/- 0.11 mg/dL); format: organism-based; conditions: in vivo
[20] = Toxicity in male Wistar rat assessed as creatinine level at 10 mg/kg, po (reference value: 0.68 +/- 0.1 mg/dL); format: organism-based; conditions: in vivo
[21] = Toxicity in male Wistar rat assessed as urea level at 10 mg/kg, po (reference value: 29.89 +/- 1.84 mg/dL); format: organism-based; conditions: in vivo
[22] = Toxicity in male Wistar rat assessed as albumin level at 10 mg/kg, po (reference value: […]); format: organism-based; conditions: in vivo
[23] = Toxicity in male Wistar rat assessed as decrease in proliferation of Kupffer cells at 10 mg/kg, po by H and E staining based analysis; format: organism-based; conditions: in vivo
[24] = Toxicity in male Wistar rat assessed as histological change in renal parenchyma at 10 mg/kg, po by H and E staining based analysis; format: organism-based; conditions: in vivo
[25] = Toxicity in male Wistar rat assessed as histopathological change in kidney at 10 mg/kg, po by H and E staining based analysis; format: organism-based; conditions: in vivo

Cc1ccc(NC(=O)COc2ccc(O)c(-c3cn[nH]c3-c3ccc(Cl)cc3)c2)cc1
IC50 [1]: 43.4 µM
IC50 [2]: 4.94 µg/mL (≈ 11.4 µM)

Cc1ccc(NC(=O)COc2ccc3occ(C(=O)c4ccc(C)cc4)c3c2)cc1
IC50 [1]: 59.3 µM
IC50 [2]: 240 µg/mL (≈ 601 µM)

Cc1ccc(NC(=O)COc2ccc3occ(C(=O)c4ccccc4)c3c2)cc1
IC50 [1]: 21.4 µM
IC50 [2]: 262 µg/mL (≈ 680 µM)

O=C1O[C@H]([C@@H](O)CO)C(O)=C1O [ASCORBIC ACID]
IC50 [2]: 2.85 µg/mL (≈ 16.2 µM)

Cc1ccc(NC(=O)COc2ccc3occ(C(=O)c4ccc(Cl)cc4)c3c2)cc1
IC50 [1]: 11.9 µM
IC50 [2]: 375 µg/mL (≈ 893 µM)

O=C(COc1ccc(O)c(-c2cn[nH]c2-c2ccccc2)c1)Nc1ccccc1
IC50 [1]: 50.2 µM
IC50 [2]: 3.07 µg/mL (≈ 7.97 µM)

Cc1ccc(NC(=O)COc2ccc(O)c(-c3cn[nH]c3-c3ccc(C)cc3)c2)cc1
IC50 [1]: 4.76 µM
IC50 [3]: 8.63 µM
IC50 [2]: 4.26 µg/mL (≈ 10.3 µM)

Cc1ccc(-c2[nH]ncc2-c2cc(OCC(=O)Nc3ccccc3)ccc2O)cc1
IC50 [1]: 40.8 µM
IC50 [2]: 3.24 µg/mL (≈ 8.11 µM)

O=C(COc1ccc(O)c(-c2cn[nH]c2-c2ccc(Cl)cc2)c1)Nc1ccccc1
IC50 [1]: 13.7 µM
IC50 [2]: 5.87 µg/mL (≈ 14 µM)

Cc1ccc(C(=O)c2coc3ccc(OCC(=O)Nc4ccccc4)cc23)cc1
IC50 [1]: 3.22 µM
IC50 [3]: 18.6 µM
IC50 [2]: 363 µg/mL (≈ 942 µM)

O=C(COc1ccc2occ(C(=O)c3ccccc3)c2c1)Nc1ccc(Cl)cc1
IC50 [1]: 40.6 µM
IC50 [2]: 132 µg/mL (≈ 325 µM)

O=C(COc1ccc2occ(C(=O)c3ccc(Cl)cc3)c2c1)Nc1ccccc1
IC50 [1]: 0.961 µM
IC50 [3]: 1.26 µM
IC50 [2]: 153 µg/mL (≈ 377 µM)

O=C(COc1ccc(O)c(-c2cn[nH]c2-c2ccc(Cl)cc2)c1)Nc1ccc(Cl)cc1
IC50 [1]: 119 µM
IC50 [2]: 3.18 µg/mL (≈ 7 µM)

O=C(COc1ccc2occ(C(=O)c3ccc(Cl)cc3)c2c1)Nc1ccc(Cl)cc1
IC50 [1]: 18.1 µM
IC50 [2]: 630 µg/mL (≈ 1430 µM)

Cc1ccc(-c2[nH]ncc2-c2cc(OCC(=O)Nc3ccc(Cl)cc3)ccc2O)cc1
IC50 [1]: 2.86 µM
IC50 [3]: 4.26 µM
IC50 [2]: 3.15 µg/mL (≈ 7.26 µM)
inhibition [4]: Active
Activity [5]: Non-toxic
Activity [6]: Non-toxic
Activity [7]: 13.28 g/dL
Activity [8]: 7.14 10^6/mm3
Activity [9]: 38.32%
Activity [10]: 60.31 fL
Activity [11]: 19.51 pg
Activity [12]: 32.59 g/dL
Activity [13]: 16.64%
Activity [14]: 6.91 fL
Activity [15]: 4.86 10^3/mm3
Activity [16]: 42.97 U/L
Activity [17]: 76.11 U/L
Activity [18]: 137.33 U/L
Activity [19]: 0.63 mg/dL
Activity [20]: 0.69 mg/dL
Activity [21]: 30.25 mg/dL
Activity [22]: 3.31 g/dL
Activity [23]: Toxic
Activity [24]: Non-toxic
Activity [25]: Non-toxic

Cc1ccc(C(=O)c2coc3ccc(OCC(=O)Nc4ccc(Cl)cc4)cc23)cc1
IC50 [1]: 52 µM
IC50 [2]: 732 µg/mL (≈ 1740 µM)

O=C(COc1ccc(O)c(-c2cn[nH]c2-c2ccccc2)c1)Nc1ccc(Cl)cc1
IC50 [1]: 40.5 µM
IC50 [2]: 2.59 µg/mL (≈ 6.17 µM)

Cc1ccc(NC(=O)COc2ccc(O)c(-c3cn[nH]c3-c3ccccc3)c2)cc1
IC50 [1]: 29.3 µM
IC50 [2]: 9.93 µg/mL (≈ 24.9 µM)

O=C(COc1ccc2occ(C(=O)c3ccccc3)c2c1)Nc1ccccc1
IC50 [1]: 2.07 µM
IC50 [3]: 3.39 µM
IC50 [2]: 587 µg/mL (≈ 1580 µM)
